Converted amounts (≈) assume the structure as drawn. Read-outs that look alike come from different tables or passages of the source.
Legend:
[1] = molecular target: hDHFR (Homo sapiens (Human), UniProt P00374); test: hDHFR enzyme inhibition assay; format: biochemical
Protocol: hDHFR: The gene for hDHFR was amplified using PCR from cDNA obtained from ATCC. The gene was inserted in a pET41 vector with a C-terminal histidine tag for affinity chromatography. The resulting construct was verified by sequencing. The hDHFR protein was expressed in E. coli and purified using a nickel affinity column.
(§1) Enzyme and inhibitor were allowed to incubate for 5 min before adding dihydrofolate to initiate the reaction. Enzyme assays were performed at least four times. IC50 values and their standard deviations were calculated in the presence of varying concentrations of inhibitor near the IC50 concentration.
(§2) Enzyme inhibition assays were performed by monitoring the rate of NADPH oxidation by the DHFR enzyme at an absorbance of 340 nm. Assays were performed in the presence of saturating concentrations of NADPH and initiated with dihydrofolate. All assays were completed at 25° C. in a buffer containing 20 mM TES pH 7.0, 50 mM KCl, 10 mM 2-mercaptoethanol, 0.5 mM EDTA and 1 mg/mL BSA. Inhibition was measured at least three times with inhibitor concentrations near the IC50 value and the average IC50 value is reported with a standard deviation.

[2] = system: Streptococcus pyogenes; test: Antibacterial MIC, broth microdilution with Alamar Blue; format: cell-based; conditions: for Selectivity S. pyogenes: IC50 (MCF10)/MIC (pathogen); for MIC S. pyogenes: Table 6
Protocol: (§3) For susceptibility testing, 10 μL of glycerol stock was suspended in a 10 mL shake flask culture of chemically defined Isosensitest broth (Oxoid) supplemented with 2% w/v glucose. A sample of the shake flask culture was diluted to 1×10^6 cells/mL in media and added to 96-well test plates (100 μL per well) containing test compounds dispensed in DMSO (2 μL). After an incubation period (30° C.) determined from the strain specific doubling time, a 0.03% w/v aqueous solution of resazurin (10 μL) was added and the plates were allowed to incubate; each well was then scored for dye reduction.

[3] = system: S. aureus 13709 (MRSA); test: as above; format: cell-based, Staphylococcus aureus; conditions: for Selectivity MRSA: IC50 (MCF10)/MIC (pathogen); for MIC MRSA: Table 6
Protocol: as §3

[4] = molecular target: S. aureus DHFR (Staphylococcus aureus, UniProt P0A017); format: biochemical; conditions: for Selectivity (h/Sa): IC50 (human)/IC50 (pathogen); for IC50: average of at least three measurements
Protocol: as §2

[5] = system: MCF-10 cells; test: Mammalian cell toxicity, MCF-10; format: cell-based, human; conditions: cytotoxicity
Protocol: (§4) Adherent cell lines were maintained in Eagle's Minimal Essential Media (Sigma-Aldrich, St. Louis, Mo., USA) with 2 mM glutamine and Earle's Balanced Salt Solution (HyClone, Logan, Utah, USA) adjusted to contain 1.5 g/L sodium bicarbonate, 0.1 mM non-essential amino acids, 1 mM sodium pyruvate and 10% fetal calf serum. Fetal calf serum used in these assays was lot matched throughout. […] Toxicity assays were conducted between passages 10-20. Target compound toxicity was measured by incubating the test compound with the cells for 4 h, washing the cells and finally treating the cells with Alamar Blue. After 12-24 h, the fluorescence of the reduced dye was measured. Fluorescence intensity as a function of test compound concentration was fit to the Fermi equation, using non-linear least squares regression analysis, to estimate IC50 values.

[6] = molecular target: S. pyogenes DHFR (Streptococcus pyogenes, UniProt Q9A091); test: S. pyogenes DHFR enzyme inhibition assay; format: biochemical; conditions: for Selectivity (h/Sp): IC50 (human)/IC50 (pathogen); for IC50: average of at least three measurements
S. pyogenes DHFR, sequence (Q9A091 1-165): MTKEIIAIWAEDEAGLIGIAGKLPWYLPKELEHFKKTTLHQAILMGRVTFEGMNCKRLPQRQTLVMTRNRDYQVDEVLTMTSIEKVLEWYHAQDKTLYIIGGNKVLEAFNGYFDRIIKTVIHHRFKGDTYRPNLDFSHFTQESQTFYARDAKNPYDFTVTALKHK
Protocol: as §2

[7] = system: HepG2 cells; test: Mammalian cell toxicity, HepG2; format: cell-based; conditions: cytotoxicity
Protocol: as §4

[8] = molecular target: ChDHFR-TS (Cryptosporidium hominis, UniProt Q27552); test: ChDHFR enzyme inhibition assay; format: biochemical; conditions: IC50 against ChDHFR
ChDHFR-TS, sequence (Q27552 1-521): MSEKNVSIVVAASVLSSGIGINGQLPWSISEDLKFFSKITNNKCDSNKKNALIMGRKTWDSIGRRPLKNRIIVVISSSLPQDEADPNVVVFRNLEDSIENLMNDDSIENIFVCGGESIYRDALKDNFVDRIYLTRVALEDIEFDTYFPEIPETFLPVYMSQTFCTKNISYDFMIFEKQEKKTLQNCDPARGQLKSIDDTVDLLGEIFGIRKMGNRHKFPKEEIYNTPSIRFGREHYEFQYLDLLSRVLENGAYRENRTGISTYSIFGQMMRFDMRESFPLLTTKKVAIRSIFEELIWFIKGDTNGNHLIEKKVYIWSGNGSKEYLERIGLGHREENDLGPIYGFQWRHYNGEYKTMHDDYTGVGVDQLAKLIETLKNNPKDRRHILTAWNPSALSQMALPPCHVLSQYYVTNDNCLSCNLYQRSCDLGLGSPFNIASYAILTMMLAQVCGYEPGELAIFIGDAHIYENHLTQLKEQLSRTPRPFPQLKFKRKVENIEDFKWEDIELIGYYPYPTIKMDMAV
Protocol: as §1
Compounds were evaluated in spectrophotometric enzyme assays using ChDHFR-TS and hDHFR. Inhibition constants (IC50) were measured (see Table 4). […] The compound abbreviations in Table 4 refer to the following compounds: […]

[9] = molecular target: TgDHFR (Toxoplasma gondii, UniProt Q07422, DEL43-70); test: TgDHFR enzyme inhibition assay; format: biochemical
TgDHFR, sequence (Q07422 71-250, added parts left off, stated change not applied): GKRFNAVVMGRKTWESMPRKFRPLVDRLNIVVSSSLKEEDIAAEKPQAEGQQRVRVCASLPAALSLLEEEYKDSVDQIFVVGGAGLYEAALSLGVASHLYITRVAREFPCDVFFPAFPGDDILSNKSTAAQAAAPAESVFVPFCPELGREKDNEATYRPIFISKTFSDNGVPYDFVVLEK
Protocol: These residues were removed, leaving a five residue loop region characteristic of several other species of DHFR.
as §1

[10] = system: C. glabrata; test: Antifungal assay (MIC, Alamar Blue); format: cell-based, Candida glabrata; conditions: for MIC (Cg): C. glabrata, YM media; for antifungal MIC C. glabrata: cell growth inhibition (Table 7 conditions); for MIC C. glabrata: IsoSensitest media supplemented with 2% glucose (thymidine-depleted)
Protocol: Antifungal assays were performed using C. glabrata as a suspension in 50% glycerol at −78° C. For susceptibility testing, a streak of stock culture was made on SDA agar and grown at 30° C. for 48 h. One pure colony of the test organism was recovered from the plate, suspended in appropriate media and grown in a 5 mL shake flask culture. A sample of the shake flask culture was diluted to 1×10^5 cells/mL in media and added to 96-well test plates (100 μL per well) containing test compounds dispensed in DMSO (1 μL). Amphotericin and ketoconazole were used as controls. After an incubation period determined from the strain specific doubling time, Alamar Blue (10 μL) was added, allowed to incubate; each well was scored for dye reduction.
Several representative compounds were also evaluated in thymidine-depleted media. It has been shown that high levels of thymidine interfere with accurate susceptibility testing of antifolates. To compensate for this, antifolates are frequently evaluated in a controlled minimal media with a low thymidine concentration. […] In addition, the compounds were also evaluated for mammalian cell toxicity using MCF-10 and HepG2 cell lines. Cellular selectivity is reported as the IC50 value for the MCF-10 human cell line divided by the MIC value (μg/mL) (Table 8).

[11] = molecular target: CgDHFR (Candida glabrata (strain ATCC 2001 / BCRC 20586 / JCM 3761 / NBRC 0622 / NRRL Y-65 / CBS 138) (Yeast) (Nakaseomyces glabratus), UniProt Q6FPH0); test: biochemical; conditions: for IC50: Table 7, read-out: IC50 (CgDHFR)
CgDHFR, sequence (Q6FPH0 1-217): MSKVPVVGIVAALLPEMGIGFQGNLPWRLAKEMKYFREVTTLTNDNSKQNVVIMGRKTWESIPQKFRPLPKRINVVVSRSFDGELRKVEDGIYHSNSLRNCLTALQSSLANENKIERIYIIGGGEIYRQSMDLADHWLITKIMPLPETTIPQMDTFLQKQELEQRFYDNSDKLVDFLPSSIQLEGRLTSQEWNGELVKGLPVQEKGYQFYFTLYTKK
From the text: CgDHFR: The gene coding CgDHFR was amplified by PCR from C. glabrata genomic DNA obtained from ATCC. The gene was inserted in a pET41 vector that includes a C-terminal histidine tag for nickel affinity chromatography. E. coli cells were transformed and the resulting plasmid was verified by sequencing. The protein was expressed in E. coli BL21(DE3) cells with isopropyl β-D-thiogalactoside induction. Following growth, the cells were lysed with BugBuster (Novagen) and centrifuged; the supernatant was loaded on a Ni-NTA column. The column was washed with 20 mM Tris (pH 8.0)/0.4 M NaCl and the protein was eluted using a gradient of 20 mM Tris (pH 8.0), 0.3 M NaCl, 20% glycerol, 0.1 mM EDTA, 2 mM DTT, 250 mM imidazole. Fractions containing CgDHFR were identified by SDS-PAGE, combined and desalted using a PD-10 column with a buffer containing 20 mM Tris pH 8.0, 20% glycerol, 0.1 mM EDTA and 2 mM DTT. The protein was concentrated to 13 mg/mL.
as §1

[12] = Table 5, average of at least three measurements, read-out: IC50 human
[13] = Table 7, read-out: IC50 (hDHFR)

hDHFR, sequence (P00374 whole entry): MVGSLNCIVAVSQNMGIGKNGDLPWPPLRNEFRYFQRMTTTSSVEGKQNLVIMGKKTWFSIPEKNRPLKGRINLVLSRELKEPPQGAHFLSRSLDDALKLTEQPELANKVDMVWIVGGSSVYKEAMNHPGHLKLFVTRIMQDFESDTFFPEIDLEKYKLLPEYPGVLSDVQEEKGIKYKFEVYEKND

SMILES | IC50 [1, 12] | Selectivity S. pyogenes [2] | MIC S. pyogenes [2] | Selectivity MRSA [3] | MIC MRSA [3] | Selectivity (h/Sa) [4] | IC50 [4] | IC50 ([5]; Table 6) | Selectivity (h/Sp) [6] | IC50 [6] | IC50 ([7]; Table 6) | further results
CCc1nc(N)nc(N)c1C#CC(C)c1cc(-c2ccccc2)ccc1OC (stereo not shown) [Compound 146] | 100 ± 10 nM | 675 | 0.08 µg/mL (≈ 0.215 µM) | 72 | 0.744 µg/mL (≈ 2 µM) | 1.5 | 67 ± 5.5 nM | 54000 nM | 4 | 26 ± 2.5 nM | 77000 nM | –
CCc1nc(N)nc(N)c1C#CCc1cccc(-c2cncnc2)c1 [Compound 155] | 160 ± 13 nM | 26,316 | 0.019 µg/mL (≈ 0.0575 µM) | 3,333 | 0.15 µg/mL (≈ 0.454 µM) | 5 | 35 ± 1.1 nM | > 500000 nM | 7 | 23 ± 1.2 nM | – | –
CCc1nc(N)nc(N)c1C#CCc1cc(OC)cc(-c2ccncc2)c1 [Compound 150] | 61 ± 5.7 nM | 10,225 | 0.04 µg/mL (≈ 0.111 µM) | 9,089 | 0.045 µg/mL (≈ 0.125 µM) | 5 | 12 ± 2.4 nM | 409000 nM | 2 | 28 ± 4 nM | 465000 nM | –
COc1cc([C@H](C)C#Cc2c(C)nc(N)nc2N)cc(OC)c1OC [138(S), 2,4-Diamino-5-((S)-3-(3,4,5-trimethoxyphenyl)but-1-ynyl)-6-methylpyrimidine] | – | – | – | – | – | – | – | – | – | – | – | IC50 [8]: < 100000 nM; IC50 [9]: < 100000 nM
COc1ccc(-c2ccccc2)cc1C(C)C#Cc1c(C)nc(N)nc1N (stereo not shown) [Compound 145] | 97 ± 10 nM | 950 | 0.04 µg/mL (≈ 0.112 µM) | 53 | 0.716 µg/mL (≈ 2 µM) | 1.3 | 75 ± 4 nM | 38000 nM | 4 | 23 ± 1.5 nM | 94000 nM | –
CCc1nc(N)nc(N)c1C#CCc1cc(-c2ccccc2)ccc1OC [Compound 142] | 300 ± 10 nM | 11,167 | 0.006 µg/mL (≈ 0.0167 µM) | 372 | 0.18 µg/mL (≈ 0.502 µM) | 125 | 2.4 ± 0.2 nM | 67000 nM | 51 | 5.9 ± 0.2 nM | – | improvement in potency against S. aureus DHFR ([4]; relative to compound 140): 18 fold
CCc1nc(N)nc(N)c1C#CCc1cccc(-c2ccccc2)c1 [Compound 143] | 290 ± 36 nM | 842 | 0.04 µg/mL (≈ 0.122 µM) | 45 | 0.71 µg/mL (≈ 2.16 µM) | 10 | 28 ± 1.7 nM | 32000 nM | 11 | 26 ± 1.7 nM | – | –
CCc1nc(N)nc(N)c1C#CCc1cc(-c2ccncc2)ccc1OC [Compound 149] | 330 ± 12 nM | 3,867 | 0.09 µg/mL (≈ 0.25 µM) | >20,000 | 0.01 µg/mL (≈ 0.0278 µM) | 16 | 21 ± 1 nM | 217000 nM | 17 | 19 ± 1.3 nM | 199000 nM | –
CCc1nc(N)nc(N)c1C#CCc1cc(OC)cc(-c2ccccc2)c1 [Compound 144] | 140 ± 1 nM | 603 | 0.33 µg/mL (≈ 0.921 µM) | 2500 | 0.08 µg/mL (≈ 0.223 µM) | 2.4 | 59 ± 2.3 nM | 199000 nM | 3 | 52 ± 1.7 nM | – | –
CCc1nc(N)nc(N)c1C#CCc1cccc(-c2cccnc2)c1 [Compound 154] | 290 ± 15 nM | >20,000 | 0.08 µg/mL (≈ 0.243 µM) | >20,000 | 0.041 µg/mL (≈ 0.124 µM) | 9 | 33 ± 0.5 nM | > 500000 nM | 6 | 47 ± 4.6 nM | > 500000 nM | –
CCc1nc(N)nc(N)c1C#CCc1cccc(-c2ccncc2)c1 [Compound 151] | 520 ± 23 nM | 11,875 | 0.04 µg/mL (≈ 0.121 µM) | 11,585 | 0.041 µg/mL (≈ 0.124 µM) | 26 | 20 ± 0.5 nM | 475000 nM | 17 | 30 ± 1.7 nM | > 500000 nM | –
COc1cc(-c2ccncc2)cc(C(C)C#Cc2c(C)nc(N)nc2N)c1 (stereo not shown) [Compound 147] | 1500 ± 8 nM | – | 0.012 µg/mL (≈ 0.0334 µM) | – | 0.09 µg/mL (≈ 0.25 µM) | – | 26 ± 2 nM | 220000 nM | – | 160 ± 9 nM | 233000 nM | IC50 [1, 13]: 1500 ± 83 nM; MIC (Cg) [10]: 1.4 µg/mL (≈ 3.9 µM); antifungal MIC C. glabrata [10]: 1.4 to 1.5 µg/mL; IC50 [11]: 97 ± 9 nM
CCc1nc(N)nc(N)c1C#CC(C)c1cc(OC)cc(-c2ccncc2)c1 (stereo not shown) [Compound 148] | 1300 ± 11 nM | – | 0.012 µg/mL (≈ 0.0321 µM) | – | 0.09 µg/mL (≈ 0.241 µM) | – | 19 ± 1 nM | 85000 nM | – | 180 ± 19 nM | 171000 nM | IC50 [1, 13]: 1300 ± 11 nM; MIC (Cg) [10]: 1.5 µg/mL (≈ 4.02 µM); MIC C. glabrata [10]: 0.36 µg/mL (≈ 0.964 µM); antifungal MIC C. glabrata [10]: 1.4 to 1.5 µg/mL; IC50 ([5]; Table 8): 85000 nM; IC50 [11]: 89 ± 8 nM; IC50 ([7]; Table 8): 171000 nM
COc1cc(C(C)C#Cc2c(C)nc(N)nc2N)cc(N2C[C@@H](C)O[C@@H](C)C2)c1 (mixture of isomers) [Compound 156] | – | – | – | – | – | – | – | – | – | – | – | IC50 [1, 13]: 330 ± 6 nM; MIC (Cg) [10]: 6.3 µg/mL (≈ 15.9 µM); Selectivity Index ([10]; IC50 (MCF-10)/MIC (C. glabrata)): 108; MIC C. glabrata [10]: 2.9 µg/mL (≈ 7.33 µM); IC50 ([5]; Table 8): 314000 nM; Selectivity ([11]; Table 7, hDHFR vs CgDHFR): 4.9 ± 0.4; IC50 [11]: 68 ± 5 nM; IC50 ([7]; Table 8): 193000 nM

Reference: patent publication US8853228B2, “Heterocyclic analogs of propargyl-linked inhibitors of dihydrofolate reductase” (University of Connecticut, priority 2011, dated 2014)
